Measurements taken from patent publication US12275731B2, “Azaindole inhibitors of wild-type and mutant forms of LRRK2” (DANA-FARBER CANCER INSTITUTE, INC., priority 2018, dated 2025).

Key:
Experiment in all cases: KinomeScan profiling
Assay type in all cases: binding
RIOK3 = target: T1, RIOK3 (Homo sapiens, UniProt O14730); conditions: RIOK3, 1 μM; read-out: % control
T1 sequence (O14730 1-519): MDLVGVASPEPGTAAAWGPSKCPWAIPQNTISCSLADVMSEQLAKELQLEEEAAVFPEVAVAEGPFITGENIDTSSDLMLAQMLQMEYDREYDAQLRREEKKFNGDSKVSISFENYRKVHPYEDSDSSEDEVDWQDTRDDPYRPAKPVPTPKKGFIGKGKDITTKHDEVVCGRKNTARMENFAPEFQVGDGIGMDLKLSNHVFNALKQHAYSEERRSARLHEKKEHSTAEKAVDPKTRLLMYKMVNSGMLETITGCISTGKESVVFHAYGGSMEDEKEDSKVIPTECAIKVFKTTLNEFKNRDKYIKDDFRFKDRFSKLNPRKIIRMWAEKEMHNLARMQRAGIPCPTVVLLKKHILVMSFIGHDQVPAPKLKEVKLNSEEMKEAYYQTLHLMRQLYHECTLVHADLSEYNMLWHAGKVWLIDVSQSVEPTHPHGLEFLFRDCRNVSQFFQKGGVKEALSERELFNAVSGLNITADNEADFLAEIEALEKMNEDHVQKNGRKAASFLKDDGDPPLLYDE
In short: (§1)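 First, compounds in DMSO are added at 1 μM to each of 468 kinase assays. Next, RLU signals are normalised between positive control (0%) and DMSO (100%). Finally, kinases under 35% are flagged active.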

EGFR(T790M) = EGFR(T790M) (Homo sapiens, UniProt P00533, T790M); conditions: read-out: % control
Sequence of EGFR(T790M) (P00533 25-1210 T790M): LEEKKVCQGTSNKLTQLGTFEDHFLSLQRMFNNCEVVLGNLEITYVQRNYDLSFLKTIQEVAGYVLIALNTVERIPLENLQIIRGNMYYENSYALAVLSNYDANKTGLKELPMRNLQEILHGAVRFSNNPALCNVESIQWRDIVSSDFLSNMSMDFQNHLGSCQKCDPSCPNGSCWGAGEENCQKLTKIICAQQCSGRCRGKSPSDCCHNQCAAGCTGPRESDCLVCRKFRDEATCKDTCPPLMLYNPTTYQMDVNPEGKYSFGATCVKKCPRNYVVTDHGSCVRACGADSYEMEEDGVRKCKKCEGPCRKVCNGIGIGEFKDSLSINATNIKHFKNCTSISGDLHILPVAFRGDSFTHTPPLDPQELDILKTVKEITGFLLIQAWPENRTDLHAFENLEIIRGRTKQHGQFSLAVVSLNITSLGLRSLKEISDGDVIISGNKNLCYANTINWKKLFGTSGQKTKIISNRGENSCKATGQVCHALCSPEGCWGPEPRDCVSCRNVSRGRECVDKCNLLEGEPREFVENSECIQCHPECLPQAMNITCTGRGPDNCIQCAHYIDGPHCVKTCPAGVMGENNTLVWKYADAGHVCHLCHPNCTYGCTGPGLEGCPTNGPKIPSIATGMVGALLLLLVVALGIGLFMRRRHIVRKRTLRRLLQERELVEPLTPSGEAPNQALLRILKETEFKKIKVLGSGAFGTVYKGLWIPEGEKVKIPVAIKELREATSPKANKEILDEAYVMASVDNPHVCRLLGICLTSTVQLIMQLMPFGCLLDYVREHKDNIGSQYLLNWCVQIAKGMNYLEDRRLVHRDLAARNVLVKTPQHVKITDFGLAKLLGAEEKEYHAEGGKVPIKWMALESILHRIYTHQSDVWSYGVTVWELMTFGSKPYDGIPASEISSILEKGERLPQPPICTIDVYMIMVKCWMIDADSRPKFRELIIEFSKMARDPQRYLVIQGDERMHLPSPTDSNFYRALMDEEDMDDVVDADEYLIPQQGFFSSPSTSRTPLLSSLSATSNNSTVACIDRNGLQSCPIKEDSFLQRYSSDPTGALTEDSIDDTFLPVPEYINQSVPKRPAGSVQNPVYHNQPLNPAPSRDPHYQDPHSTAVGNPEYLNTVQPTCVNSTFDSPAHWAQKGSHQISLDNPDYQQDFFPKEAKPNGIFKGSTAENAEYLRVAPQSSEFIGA
In short: as §1

PCTK1 = PCTK1 (Homo sapiens, UniProt Q00536); conditions: PCTK1, 1 μM; read-out: % control
Sequence of PCTK1 (Q00536 whole entry): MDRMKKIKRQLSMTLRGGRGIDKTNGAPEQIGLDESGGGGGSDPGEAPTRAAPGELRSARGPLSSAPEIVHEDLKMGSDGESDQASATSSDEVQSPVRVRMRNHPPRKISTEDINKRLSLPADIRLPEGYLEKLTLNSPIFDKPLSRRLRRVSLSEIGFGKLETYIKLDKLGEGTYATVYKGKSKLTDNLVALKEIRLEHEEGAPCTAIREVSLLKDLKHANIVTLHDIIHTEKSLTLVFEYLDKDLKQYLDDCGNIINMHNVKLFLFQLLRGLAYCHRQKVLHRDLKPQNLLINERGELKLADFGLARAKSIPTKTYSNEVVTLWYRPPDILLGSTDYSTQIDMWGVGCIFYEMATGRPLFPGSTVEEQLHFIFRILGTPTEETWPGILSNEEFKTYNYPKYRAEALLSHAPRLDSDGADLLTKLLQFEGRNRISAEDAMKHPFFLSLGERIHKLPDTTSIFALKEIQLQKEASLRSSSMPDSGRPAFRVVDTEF
In short: as §1

RET = RET (Homo sapiens, UniProt P07949); conditions: read-out: % control
Sequence of RET (P07949 29-1114): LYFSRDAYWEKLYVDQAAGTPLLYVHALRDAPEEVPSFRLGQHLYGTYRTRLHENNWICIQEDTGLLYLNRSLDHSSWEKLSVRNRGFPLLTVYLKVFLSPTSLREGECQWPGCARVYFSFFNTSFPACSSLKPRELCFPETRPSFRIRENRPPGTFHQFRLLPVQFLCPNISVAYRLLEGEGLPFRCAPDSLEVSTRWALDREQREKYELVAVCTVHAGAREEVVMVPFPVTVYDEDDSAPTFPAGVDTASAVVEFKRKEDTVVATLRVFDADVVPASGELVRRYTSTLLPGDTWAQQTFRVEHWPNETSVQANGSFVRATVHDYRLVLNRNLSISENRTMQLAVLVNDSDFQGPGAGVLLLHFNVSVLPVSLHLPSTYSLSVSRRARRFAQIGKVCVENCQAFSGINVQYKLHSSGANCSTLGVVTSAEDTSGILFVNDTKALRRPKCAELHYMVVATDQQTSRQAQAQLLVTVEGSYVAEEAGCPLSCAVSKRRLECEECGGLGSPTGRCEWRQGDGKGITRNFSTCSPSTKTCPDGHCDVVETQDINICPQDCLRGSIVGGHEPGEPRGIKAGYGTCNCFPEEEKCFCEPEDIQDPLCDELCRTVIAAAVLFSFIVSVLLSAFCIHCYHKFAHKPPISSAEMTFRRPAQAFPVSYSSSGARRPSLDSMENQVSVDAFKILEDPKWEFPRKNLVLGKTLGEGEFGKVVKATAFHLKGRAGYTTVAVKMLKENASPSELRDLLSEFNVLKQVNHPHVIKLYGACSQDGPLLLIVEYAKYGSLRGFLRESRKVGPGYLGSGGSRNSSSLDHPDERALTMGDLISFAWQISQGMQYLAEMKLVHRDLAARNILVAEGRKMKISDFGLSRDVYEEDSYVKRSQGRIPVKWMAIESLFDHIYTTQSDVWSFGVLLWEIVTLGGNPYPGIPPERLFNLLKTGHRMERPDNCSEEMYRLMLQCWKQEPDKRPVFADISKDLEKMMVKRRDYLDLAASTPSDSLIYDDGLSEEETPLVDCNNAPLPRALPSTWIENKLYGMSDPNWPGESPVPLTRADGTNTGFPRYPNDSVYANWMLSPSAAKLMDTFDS
In short: as §1

SGK = target: T2, SGK (Homo sapiens, UniProt O00141); conditions: read-out: % control
T2 construct: purchased KinomeScan® (panel service)
T2 sequence (O00141 1-431): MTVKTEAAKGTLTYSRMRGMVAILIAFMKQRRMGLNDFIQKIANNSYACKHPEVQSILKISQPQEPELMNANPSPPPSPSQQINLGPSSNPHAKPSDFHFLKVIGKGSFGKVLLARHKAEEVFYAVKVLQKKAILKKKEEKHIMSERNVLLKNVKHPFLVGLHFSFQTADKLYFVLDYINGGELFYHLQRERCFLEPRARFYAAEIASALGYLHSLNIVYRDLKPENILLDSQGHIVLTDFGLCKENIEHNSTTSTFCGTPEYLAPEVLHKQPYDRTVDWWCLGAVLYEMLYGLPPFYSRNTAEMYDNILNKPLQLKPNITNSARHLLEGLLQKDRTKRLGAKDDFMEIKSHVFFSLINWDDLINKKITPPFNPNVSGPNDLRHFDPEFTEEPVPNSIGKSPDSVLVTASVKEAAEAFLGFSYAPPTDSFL
In short: as §1

RIPK5 = target: T3, RIPK5 (Homo sapiens, UniProt Q6XUX3); conditions: RIPK5, 1 μM; read-out: % control
T3 sequence (Q6XUX3 1-929): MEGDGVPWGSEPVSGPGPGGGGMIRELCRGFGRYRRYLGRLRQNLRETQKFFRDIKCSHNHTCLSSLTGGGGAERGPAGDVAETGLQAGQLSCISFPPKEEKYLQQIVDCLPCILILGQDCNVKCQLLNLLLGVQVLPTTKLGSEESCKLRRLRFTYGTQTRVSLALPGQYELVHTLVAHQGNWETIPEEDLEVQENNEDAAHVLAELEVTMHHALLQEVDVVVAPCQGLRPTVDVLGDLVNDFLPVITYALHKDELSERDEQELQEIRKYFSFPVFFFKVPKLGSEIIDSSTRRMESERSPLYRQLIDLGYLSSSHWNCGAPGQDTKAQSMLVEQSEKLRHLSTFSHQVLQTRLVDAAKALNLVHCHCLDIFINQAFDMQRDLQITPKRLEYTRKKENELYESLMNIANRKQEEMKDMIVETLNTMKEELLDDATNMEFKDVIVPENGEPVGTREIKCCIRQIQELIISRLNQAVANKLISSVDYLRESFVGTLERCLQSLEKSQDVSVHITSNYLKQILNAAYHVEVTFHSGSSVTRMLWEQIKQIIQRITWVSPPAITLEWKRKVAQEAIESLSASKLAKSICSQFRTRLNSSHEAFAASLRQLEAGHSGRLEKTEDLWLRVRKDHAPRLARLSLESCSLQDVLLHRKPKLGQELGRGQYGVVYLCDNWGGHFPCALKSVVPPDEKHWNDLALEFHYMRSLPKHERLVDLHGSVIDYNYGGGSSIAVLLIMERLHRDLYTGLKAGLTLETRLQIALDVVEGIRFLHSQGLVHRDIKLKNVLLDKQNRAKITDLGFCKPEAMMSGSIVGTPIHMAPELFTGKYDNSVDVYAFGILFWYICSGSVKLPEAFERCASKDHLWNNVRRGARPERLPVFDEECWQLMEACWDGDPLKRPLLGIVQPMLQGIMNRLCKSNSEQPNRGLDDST
In short: as §1

WNK2 = WNK2 (Homo sapiens, UniProt Q9Y3S1); conditions: WNK2, 1 μM; read-out: % control
Sequence of WNK2 (Q9Y3S1 whole entry): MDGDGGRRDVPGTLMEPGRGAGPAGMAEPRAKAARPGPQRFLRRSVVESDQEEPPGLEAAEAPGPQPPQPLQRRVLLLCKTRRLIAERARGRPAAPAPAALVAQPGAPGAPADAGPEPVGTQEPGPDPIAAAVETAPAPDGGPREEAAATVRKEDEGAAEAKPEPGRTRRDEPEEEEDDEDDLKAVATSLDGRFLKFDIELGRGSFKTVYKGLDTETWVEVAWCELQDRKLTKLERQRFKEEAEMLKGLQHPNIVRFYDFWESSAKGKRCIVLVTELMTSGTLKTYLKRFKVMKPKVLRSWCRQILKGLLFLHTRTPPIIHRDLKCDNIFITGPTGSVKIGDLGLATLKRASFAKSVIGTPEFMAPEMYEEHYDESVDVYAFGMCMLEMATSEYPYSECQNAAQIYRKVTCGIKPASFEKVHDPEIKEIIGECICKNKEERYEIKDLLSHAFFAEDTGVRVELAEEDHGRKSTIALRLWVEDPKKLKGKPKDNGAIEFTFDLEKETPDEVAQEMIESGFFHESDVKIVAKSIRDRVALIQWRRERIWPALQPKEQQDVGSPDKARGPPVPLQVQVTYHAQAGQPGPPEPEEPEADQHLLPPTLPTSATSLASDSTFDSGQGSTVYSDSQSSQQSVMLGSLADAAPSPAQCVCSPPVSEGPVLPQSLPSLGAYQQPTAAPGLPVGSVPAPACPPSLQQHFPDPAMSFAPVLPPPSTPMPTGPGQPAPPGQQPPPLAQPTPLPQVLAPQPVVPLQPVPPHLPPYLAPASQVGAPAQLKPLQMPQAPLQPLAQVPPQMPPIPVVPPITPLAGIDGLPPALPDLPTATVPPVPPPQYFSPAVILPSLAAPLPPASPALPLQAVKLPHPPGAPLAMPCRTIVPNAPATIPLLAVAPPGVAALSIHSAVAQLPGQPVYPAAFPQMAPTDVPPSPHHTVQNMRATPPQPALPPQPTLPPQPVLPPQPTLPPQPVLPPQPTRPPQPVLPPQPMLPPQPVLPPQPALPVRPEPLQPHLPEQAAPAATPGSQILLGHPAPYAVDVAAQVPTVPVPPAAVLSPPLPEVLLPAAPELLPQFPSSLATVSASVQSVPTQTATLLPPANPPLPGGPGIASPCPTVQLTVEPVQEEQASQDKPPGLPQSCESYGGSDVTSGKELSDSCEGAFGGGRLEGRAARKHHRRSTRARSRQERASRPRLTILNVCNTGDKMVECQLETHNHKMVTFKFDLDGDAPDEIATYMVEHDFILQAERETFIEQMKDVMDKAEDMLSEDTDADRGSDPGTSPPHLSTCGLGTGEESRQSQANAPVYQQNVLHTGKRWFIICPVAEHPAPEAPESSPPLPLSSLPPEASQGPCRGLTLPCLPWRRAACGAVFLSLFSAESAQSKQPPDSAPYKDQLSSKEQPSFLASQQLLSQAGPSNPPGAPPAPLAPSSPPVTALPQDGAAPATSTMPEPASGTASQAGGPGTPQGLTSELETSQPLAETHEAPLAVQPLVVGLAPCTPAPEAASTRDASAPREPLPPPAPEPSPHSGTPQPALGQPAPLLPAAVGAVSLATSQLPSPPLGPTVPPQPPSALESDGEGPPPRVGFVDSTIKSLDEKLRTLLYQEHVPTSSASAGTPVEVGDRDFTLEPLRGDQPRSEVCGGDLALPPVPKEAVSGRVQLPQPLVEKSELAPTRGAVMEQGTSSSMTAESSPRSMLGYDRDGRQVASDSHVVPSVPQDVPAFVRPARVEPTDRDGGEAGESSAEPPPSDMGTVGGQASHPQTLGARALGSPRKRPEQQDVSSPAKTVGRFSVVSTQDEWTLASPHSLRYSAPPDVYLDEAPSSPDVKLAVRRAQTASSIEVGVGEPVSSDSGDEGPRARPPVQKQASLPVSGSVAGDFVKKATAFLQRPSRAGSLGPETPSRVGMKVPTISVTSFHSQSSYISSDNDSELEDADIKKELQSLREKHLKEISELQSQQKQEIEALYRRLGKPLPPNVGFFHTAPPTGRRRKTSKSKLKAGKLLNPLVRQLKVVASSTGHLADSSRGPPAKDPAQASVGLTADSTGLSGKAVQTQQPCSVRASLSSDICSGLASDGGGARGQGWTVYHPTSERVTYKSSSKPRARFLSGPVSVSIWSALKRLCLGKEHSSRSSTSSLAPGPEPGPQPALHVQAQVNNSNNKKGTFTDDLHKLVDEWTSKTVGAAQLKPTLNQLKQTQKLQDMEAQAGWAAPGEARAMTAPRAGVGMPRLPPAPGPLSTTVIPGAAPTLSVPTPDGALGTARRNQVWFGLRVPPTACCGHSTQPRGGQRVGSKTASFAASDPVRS
In short: as §1

| SMILES | remaining binding at 1 µM (RIOK3) | remaining binding at 1 µM (EGFR(T790M)) | remaining binding at 1 µM (PCTK1) | remaining binding at 1 µM (RET) | remaining binding at 1 µM (SGK) | remaining binding at 1 µM (RIPK5) | remaining binding at 1 µM (WNK2) |
| --- | --- | --- | --- | --- | --- | --- | --- |
| CNc1c(-c2ccc(C(=O)N3CCC(N4CCOCC4)CC3)cc2)cnc2[nH]cc(Cl)c12 [Compound 96, (4-(3-chloro-4-(methylamino)-1H-pyrrolo[2,3-b]pyridin-5-yl)phenyl)(4-morpholinopiperidin-1-yl)methanone] | 36% | 83% | 86% | 80% | 7.3% | 8.6% | 100% |
| O=C(c1ccc(-c2cnc3[nH]cc(Cl)c3c2NC2CCCC2)cc1)N1CCC(N2CCOCC2)CC1 [Compound 101, (4-(3-chloro-4-(cyclopentylamino)-1H-pyrrolo[2,3-b]pyridin-5-yl)phenyl)(4-morpholinopiperidin-1-yl)methanone] | 50% | 100% | 100% | 85% | 86% | 50% | 100% |
| CNc1c(-c2cnn([C@H]3CCN(C(C)=O)C[C@@H]3F)c2)cnc2[nH]cc(Cl)c12 [Compound 77, 1-((3S,4S)-4-(4-(3-chloro-4-(methylamino)-1H-pyrrolo[2,3-b]pyridin-5-yl)-1H-pyrazol-1-yl)-3-fluoropiperidin-1-yl)ethan-1-one] | 24% | 93% | 85% | 27% | 17% | 31% | 92% |
